Data set [1] concerns RAW264.7. The data set can be described thus: Antiinflammatory activity in LPS-stimulated mouse RAW264.7 cells assessed as reduction in nitric oxide production at 40 uM after 24 hrs by Griess method based ELISA (reference value: 52.4 +/- 0.9 uM). The format is functional. A general note: Nitrite, measured by Griess reagent, commonly stands in for NO production.
Data set [2] deals with RAW264.7. Nature of the data set: Antiinflammatory activity in LPS-stimulated mouse RAW264.7 cells assessed as reduction in TNFalpha expression at 30 uM co-incubated with LPS for 24 hrs by RT-PCR method relative to untreated control. The format is functional.
Data set [3] concerns RAW264.7. The data set can be described thus: Antiinflammatory activity in LPS-stimulated mouse RAW264.7 cells assessed as reduction in TNFalpha level at 10 to 40 uM co-incubated with LPS for 24 hrs by ELISA method. The format is functional, cell-based.
The subject of data set [4] is RAW264.7. Nature of the data set: Antiinflammatory activity in LPS-stimulated mouse RAW264.7 cells assessed as reduction in iNOS expression co-incubated with LPS for 24 hrs by RT-PCR method relative to untreated control. It counts as functional, cell-based.
Data set [5] concerns RAW264.7. Nature of the data set: Antiinflammatory activity in LPS-stimulated mouse RAW264.7 cells assessed as reduction in TNFalpha expression at 10 uM co-incubated with LPS for 24 hrs by RT-PCR method relative to untreated control. The format is functional.
Data set [6] relates to RAW264.7. Nature of the data set: Antiinflammatory activity in LPS-stimulated mouse RAW264.7 cells assessed as reduction in nitric oxide production after 24 hrs by Griess method based ELISA. The format is functional, cell-based. The conditions noted are these: RAW264.7, 24 h.
The nature of data set [7]: Cytotoxicity against LPS-stimulated mouse RAW264.7 cells assessed as cell viability at 40 uM after 24 hrs by MTT assay (reference value: 100%). As to conditions: LPS-stimulated RAW264.7 cells, read-out: Activity. The format is cell-based.
Data set [8] relates to RAW264.7. Nature of the data set: Antiinflammatory activity in LPS-stimulated mouse RAW264.7 cells assessed as reduction in IL6 expression at 10 uM co-incubated with LPS for 24 hrs by RT-PCR method relative to untreated control. The format is functional.
Data set [9] is described as follows: Cytotoxicity against LPS-stimulated mouse RAW264.7 cells assessed as cell viability at 20 uM after 24 hrs by MTT assay (reference value: 100%). It counts as cell-based. The conditions noted are these: LPS-stimulated RAW264.7 cells, read-out: Activity.
The test system of data set [10] is RAW264.7. Nature of the data set: Antiinflammatory activity in LPS-stimulated mouse RAW264.7 cells assessed as reduction in iNOS expression at 30 uM co-incubated with LPS for 24 hrs by RT-PCR method relative to untreated control. It counts as functional.
For data set [11], the system named is RAW264.7. The data set can be described thus: Antiinflammatory activity in LPS-stimulated mouse RAW264.7 cells assessed as reduction in nitric oxide production at 20 uM after 24 hrs by Griess method based ELISA (reference value: 52.4 +/- 0.9 uM). It counts as functional.
In data set [12] the test system is RAW264.7. Nature of the data set: Antiinflammatory activity in LPS-stimulated mouse RAW264.7 cells assessed as reduction in iNOS expression at 20 uM co-incubated with LPS for 24 hrs by RT-PCR method relative to untreated control. The format is functional.
For data set [13], the system named is RAW264.7. The data set can be described thus: Antiinflammatory activity in LPS-stimulated mouse RAW264.7 cells assessed as reduction in IL6 expression at 30 uM co-incubated with LPS for 24 hrs by RT-PCR method relative to untreated control. It counts as functional.
For data set [14], the system named is RAW264.7. Nature of the data set: Induction of iNOS mRNA expression in LPS-non-stimulated mouse RAW264.7 cells by RT-PCR method. The format is cell-based.
The subject of data set [15] is RAW264.7. Nature of the data set: Antiinflammatory activity in LPS-stimulated mouse RAW264.7 cells assessed as reduction in IL6 expression at 20 uM co-incubated with LPS for 24 hrs by RT-PCR method relative to untreated control. The format is functional.
Data set [16] deals with RAW264.7. The data set can be described thus: Antiinflammatory activity in LPS-stimulated mouse RAW264.7 cells assessed as reduction in IL-1beta expression at 10 uM co-incubated with LPS for 24 hrs by RT-PCR method relative to untreated control. The format is functional.
Data set [17] has as its system RAW264.7. Nature of the data set: Antiinflammatory activity in LPS-stimulated mouse RAW264.7 cells assessed as reduction in COX2 expression at 20 uM co-incubated with LPS for 24 hrs by RT-PCR method relative to untreated control. It counts as functional.
Data set [18] concerns RAW264.7. Nature of the data set: Antiinflammatory activity in LPS-stimulated mouse RAW264.7 cells assessed as reduction in TNFalpha expression at 20 uM co-incubated with LPS for 24 hrs by RT-PCR method relative to untreated control. It counts as functional.
Data set [19] deals with RAW264.7. Nature of the data set: Antiinflammatory activity in LPS-stimulated mouse RAW264.7 cells assessed as reduction in iNOS expression at 10 uM co-incubated with LPS for 24 hrs by RT-PCR method relative to untreated control. The format is functional.
Data set [20] concerns RAW264.7. The data set can be described thus: Antiinflammatory activity in LPS-stimulated mouse RAW264.7 cells assessed as reduction in COX2 expression at 30 uM co-incubated with LPS for 24 hrs by RT-PCR method relative to untreated control. The format is functional.
The test system of data set [21] is RAW264.7. Nature of the data set: Antiinflammatory activity in LPS-stimulated mouse RAW264.7 cells assessed as reduction in IL-1beta expression at 20 uM co-incubated with LPS for 24 hrs by RT-PCR method relative to untreated control. It counts as functional.
Data set [22] is described as follows: Cytotoxicity against LPS-stimulated mouse RAW264.7 cells assessed as cell viability at 10 uM after 24 hrs by MTT assay (reference value: 100%). It counts as cell-based. The conditions noted are these: LPS-stimulated RAW264.7 cells, read-out: Activity. (Formazan colour is commonly taken as a measure of viable cells.)
Data set [23] concerns RAW264.7. Nature of the data set: Antiinflammatory activity in LPS-stimulated mouse RAW264.7 cells assessed as reduction in IL-1beta expression at 30 uM co-incubated with LPS for 24 hrs by RT-PCR method relative to untreated control. It counts as functional.
Data set [24] concerns RAW264.7. The data set can be described thus: Antiinflammatory activity in LPS-stimulated mouse RAW264.7 cells assessed as reduction in COX2 expression at 10 uM co-incubated with LPS for 24 hrs by RT-PCR method relative to untreated control. The format is functional.
Data set [25] has as its system RAW264.7. The data set can be described thus: Antiinflammatory activity in LPS-stimulated mouse RAW264.7 cells assessed as reduction in nitric oxide production at 10 uM after 24 hrs by Griess method based ELISA (reference value: 52.4 +/- 0.9 uM). The format is functional.
Data set [26] can be described thus: Cytotoxicity against LPS-stimulated mouse RAW264.7 cells assessed as cell viability at 1.5 uM after 24 hrs by MTT assay (reference value: 100%). It counts as cell-based. The conditions noted are these: LPS-stimulated RAW264.7 cells, read-out: Activity.
For data set [27], the system named is RAW264.7. Nature of the data set: Antiinflammatory activity in LPS-stimulated mouse RAW264.7 cells assessed as reduction in nitric oxide production at 1.5 uM after 24 hrs by Griess method based ELISA (reference value: 52.4 +/- 0.9 uM). The format is functional.
The subject of data set [28] is RAW264.7. The data set can be described thus: Antiinflammatory activity in LPS-stimulated mouse RAW264.7 cells assessed as reduction in nitric oxide production at 3 uM after 24 hrs by Griess method based ELISA (reference value: 52.4 +/- 0.9 uM). The format is functional.
The nature of data set [29]: Cytotoxicity against LPS-stimulated mouse RAW264.7 cells assessed as cell viability at 3 uM after 24 hrs by MTT assay (reference value: 100%). It counts as cell-based. The conditions noted are these: LPS-stimulated RAW264.7 cells, read-out: Activity.
A short description of data set [30]: Cytotoxicity against LPS-stimulated mouse RAW264.7 cells assessed as cell viability at 120 uM after 24 hrs by MTT assay (reference value: 100%). The format is cell-based. As to conditions: LPS-stimulated RAW264.7 cells, read-out: Activity.
Data set [31] concerns RAW264.7. Nature of the data set: Antiinflammatory activity in LPS-stimulated mouse RAW264.7 cells assessed as reduction in nitric oxide production at 80 uM after 24 hrs by Griess method based ELISA (reference value: 52.4 +/- 0.9 uM). The format is functional.
Data set [32] has as its system RAW264.7. The data set can be described thus: Antiinflammatory activity in LPS-stimulated mouse RAW264.7 cells assessed as reduction in nitric oxide production at 120 uM after 24 hrs by Griess method based ELISA (reference value: 52.4 +/- 0.9 uM). It counts as functional.
Data set [33] in a line: Cytotoxicity against LPS-stimulated mouse RAW264.7 cells assessed as cell viability at 80 uM after 24 hrs by MTT assay (reference value: 100%). It counts as cell-based. As to conditions: LPS-stimulated RAW264.7 cells, read-out: Activity.

≈ marks a conversion by molar mass, not a printed value. Calls of active or inactive are those of the source. The calls are words filed in the database; no cut-off is given here.

By IC50 is commonly meant the point on the concentration scale where inhibition reaches its midpoint. In the case of `C[C@@H]1[C@H]2[C@H]3C[C@H](O)[C@@H]4[C@@]5(C)CC[C@H](O[C@H]6O[C@H](CO[C@H]7O[C@H](CO[C@H]8O[C@H](CO[C@H]9O[C@H](CO)[C@@H](O)[C@H](O)[C@H]9O)[C@@H](O)[C@H](O)[C@H]8O)[C@@H](O)[C@H](O)[C@H]7O)[C@@H](O)[C@H](O)[C@H]6O)C(C)(C)[C@@H]5CC[C@@]4(C)[C@]3(C)CC[C@@]2(C)CC[C@H]1C`, the Activity with RAW264.7 [1] was 7.1 µM; in the data set on RAW264.7 [11] it was 39.8 µM; in the data set with RAW264.7 [14], “Non-toxic”; in the data set on RAW264.7 [25] it was 46.4 µM. Further, the “fold change (FC)” value came out at 0.6 in the data set on RAW264.7 [2]; 0.6 in the data set with RAW264.7 [5]; 0.5 with RAW264.7 [8]; 0.4 in the data set on RAW264.7 [10]; 0.7 in the data set with RAW264.7 [12]; 0.7 in the data set on RAW264.7 [13]. The “fold change (FC)” value was found to be 0.6 in the data set on RAW264.7 [15]; 0.7 in the data set with RAW264.7 [16]; 0.6 in the data set on RAW264.7 [17]; 0.7 with RAW264.7 [18]; 0.7 in the data set with RAW264.7 [19]; 0.5 with RAW264.7 [20]. The “fold change (FC)” value worked out at 0.7 in the data set with RAW264.7 [21], 0.6 with RAW264.7 [23] and 0.5 with RAW264.7 [24]. Further, the inhibition result in the data set on RAW264.7 [3] is “Active”. Moreover, the inhibition entry in the data set on RAW264.7 [4] is “Dose-dependent effect”. Further, in the data set with RAW264.7 [6], the IC50 stood at 25.9 µg/mL (≈ 23.7 µM). Further, the viability at 24 h, 40 µM in data set [7] stood at 98.7%. The viability at 24 h, 20 µM in [9] stood at 126%. Moreover, in [22], the viability at 24 h, 10 µM came out at 111%.
As for `O=c1c(O)c(-c2ccc(O)c(O)c2)oc2cc(O)cc(O)c12` [QUERCETIN], the viability at 24 h, 1.5 µM in data set [26] is 104%. Moreover, the half-inhibitory concentration (IC50) in the data set with RAW264.7 [6] came out at 2.9 µg/mL (≈ 9.6 µM). Moreover, the Activity was found to be 20.8 µM in the data set with RAW264.7 [27] and 13.5 µM in the data set on RAW264.7 [28]. In addition, the viability at 24 h, 3 µM in data set [29] came out at 104%.
For the compound `C[C@@H]1C[C@@H](O)[C@]2(C)CC[C@]3(C)[C@H](CC[C@@H]4[C@@]5(C)CC[C@H](O[C@@H]6O[C@H](CO)[C@@H](O)[C@H](O)[C@H]6O[C@@H]6O[C@H](CO)[C@@H](O)[C@H](O)[C@H]6O)C(C)(C)[C@@H]5CC[C@]43C)[C@@H]2[C@]1(C)O`, the values for the Activity in the data set on RAW264.7 [1], with RAW264.7 [31] and with RAW264.7 [32] were 54.5 µM, 40.4 µM and 30.8 µM, respectively. For the same compound, in data set [30], the viability at 24 h, 120 µM amounted to 73.9%. Besides, the IC50 with RAW264.7 [6] is 127 µg/mL (≈ 161 µM). Also, the viability at 24 h, 40 µM in [7] came out at 90.3%. Further, the viability at 24 h, 80 µM in data set [33] stood at 91.7%.

The values are drawn from ChEMBL document CHEMBL3352216, “Triterpene glycosides from red ginseng marc and their anti-inflammatory activities” (Bioorg Med Chem Lett, 2014).
